Series [1] has as its target human Nav 1.2 channel (Homo sapiens, UniProt Q99250, R1882Q).
The subject of series [2] is patients with R1882Q mutation. Particulars: human, in vivo; cited from earlier work.
The test system of series [3] is patients with R853Q mutation. Particulars: human, in vivo. The text has this: (§1) All patients, or their parents or legal guardian in the case of minors or individuals with intellectual disability, gave written informed consent. The study was approved by the Human Research Ethics Committee of Austin Health, Melbourne.
(§2) Clinical data was collated from the literature for previously reported individuals (N=14), with updated clinical information obtained in one patient. Individuals whose clinical data was not previously published (N=5), had their mutations identified through clinical testing. Detailed phone or clinical interviews with these parents were undertaken by paediatric epileptologists (KBH, MRC), home videos were reviewed and medical records from the treating neurologist obtained.

Series [4] deals with patients with R853Q mutation. The following applies: human, in vivo; cited from earlier work.
In series [5] the test system is patients with R1882Q mutation. The following applies: human, in vivo.
Text: as §1, §2

Entries after “also recorded” stand apart in the source; their conditions may differ. Like-named read-outs stand apart in the source and are kept apart here.

Sequence of human Nav 1.2 channel (Q99250 whole entry R1882Q, looked up): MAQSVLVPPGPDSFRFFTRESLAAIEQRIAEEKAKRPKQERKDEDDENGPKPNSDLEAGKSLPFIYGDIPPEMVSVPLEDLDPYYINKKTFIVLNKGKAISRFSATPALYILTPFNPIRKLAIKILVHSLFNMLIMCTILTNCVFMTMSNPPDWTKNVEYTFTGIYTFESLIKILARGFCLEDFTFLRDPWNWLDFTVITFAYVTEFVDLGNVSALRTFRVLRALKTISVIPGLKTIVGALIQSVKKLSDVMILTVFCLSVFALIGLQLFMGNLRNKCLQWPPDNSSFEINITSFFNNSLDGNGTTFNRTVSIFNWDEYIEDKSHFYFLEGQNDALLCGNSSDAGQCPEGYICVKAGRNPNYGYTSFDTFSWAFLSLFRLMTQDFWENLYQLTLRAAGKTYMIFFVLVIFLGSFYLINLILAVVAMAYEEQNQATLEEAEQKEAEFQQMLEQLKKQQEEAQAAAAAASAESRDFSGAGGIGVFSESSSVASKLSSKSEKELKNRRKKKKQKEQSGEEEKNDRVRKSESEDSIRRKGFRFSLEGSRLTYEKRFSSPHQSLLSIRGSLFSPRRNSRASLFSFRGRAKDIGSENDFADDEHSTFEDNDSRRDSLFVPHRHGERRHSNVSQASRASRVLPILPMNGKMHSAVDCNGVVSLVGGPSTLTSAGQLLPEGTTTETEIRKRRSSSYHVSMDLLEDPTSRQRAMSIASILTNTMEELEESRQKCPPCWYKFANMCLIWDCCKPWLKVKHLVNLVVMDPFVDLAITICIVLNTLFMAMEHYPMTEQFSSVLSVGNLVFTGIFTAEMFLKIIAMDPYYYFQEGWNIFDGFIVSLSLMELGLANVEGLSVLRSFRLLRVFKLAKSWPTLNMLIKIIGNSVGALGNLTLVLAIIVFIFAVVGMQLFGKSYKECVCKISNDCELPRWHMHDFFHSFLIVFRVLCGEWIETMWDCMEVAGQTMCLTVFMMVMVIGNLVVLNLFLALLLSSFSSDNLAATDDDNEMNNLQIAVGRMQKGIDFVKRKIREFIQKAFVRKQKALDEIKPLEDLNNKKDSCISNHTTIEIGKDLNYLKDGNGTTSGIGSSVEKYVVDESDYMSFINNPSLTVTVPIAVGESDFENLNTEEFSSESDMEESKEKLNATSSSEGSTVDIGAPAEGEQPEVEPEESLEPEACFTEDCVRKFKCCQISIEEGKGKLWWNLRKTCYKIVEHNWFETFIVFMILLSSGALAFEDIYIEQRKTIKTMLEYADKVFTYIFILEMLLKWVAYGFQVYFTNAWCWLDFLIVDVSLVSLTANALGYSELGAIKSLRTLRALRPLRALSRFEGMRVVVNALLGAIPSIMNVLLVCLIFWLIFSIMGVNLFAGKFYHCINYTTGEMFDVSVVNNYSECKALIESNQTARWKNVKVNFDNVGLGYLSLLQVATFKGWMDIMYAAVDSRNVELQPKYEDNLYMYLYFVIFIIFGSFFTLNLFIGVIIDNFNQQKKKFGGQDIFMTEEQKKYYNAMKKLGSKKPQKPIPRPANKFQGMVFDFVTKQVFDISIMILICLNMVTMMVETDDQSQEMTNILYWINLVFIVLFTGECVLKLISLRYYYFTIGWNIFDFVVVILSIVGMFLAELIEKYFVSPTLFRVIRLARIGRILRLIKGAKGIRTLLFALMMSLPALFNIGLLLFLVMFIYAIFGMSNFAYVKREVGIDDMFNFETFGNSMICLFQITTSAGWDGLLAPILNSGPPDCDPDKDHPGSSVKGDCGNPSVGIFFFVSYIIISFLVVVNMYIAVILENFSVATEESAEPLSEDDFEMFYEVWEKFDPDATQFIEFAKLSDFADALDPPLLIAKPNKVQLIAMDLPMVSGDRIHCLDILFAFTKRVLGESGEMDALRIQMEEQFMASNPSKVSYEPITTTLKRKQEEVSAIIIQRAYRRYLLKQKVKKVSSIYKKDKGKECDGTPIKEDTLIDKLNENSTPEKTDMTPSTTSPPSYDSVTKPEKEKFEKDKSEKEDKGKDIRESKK

`NC1=N[C@H](O)[C@H]2[C@H]3O[C@]4(O)O[C@@H]([C@@H](O)[C@@]2(N1)[C@@H]4O)[C@]3(O)CO` [tetrodotoxin]: the “Sensitivity of persistent INa to tetrodotoxin” value in series [1] is “sensitive”.
As to `NC(=O)N1c2ccccc2CC(=O)c2ccccc21` [OXC, oxcarbazepine], the entries for the “Other sodium channel blocker response” value in series [2] and in series [3] were “no effect” and “seizure control remained good”, respectively.
Regarding “adrenocorticotropic hormone (SYSMEHFRWGKPVGKKRRPVKVYPNGAEDESAEAFPLEF; Corticotropin; UniProt P01189 138-176, looked up) [ACTH]”, in series [4], the “Other AED response” value is “Benefit”. For the same compound, in series [3], the “Other AED response” value is listed as “Benefit” and the “Seizure control, summary over patients” value was “beneficial in four patients”.
For the compound `CCCC(CCC)C(=O)O` [VPA, valproic acid], the “Other AED response” value in series [4] and in series [5] was “Benefit” in each case.
Consider `O=C1NC(=O)C(c2ccccc2)(c2ccccc2)N1` [PHT, phenytoin], for which the PHT response entry is “No effect” in series [4], “No effect” in series [2], “Benefit” in series [5] and “No effect” in series [3]. Besides, the “Adverse effect with phenytoin loads (movement disorder)” value in series [5] is “‘continuous thrashing’”. Besides, in series [5], the “Seizure control, summary over patients” value was “some showed marked improvement; also recorded: improved seizure control in two and no definite effect on seizures in three; also recorded: some patients with R1882Q mutations become seizure free; also recorded: not universal”.
In the case of `CCCCCc1cc(O)c2c(c1)OC(C)(C)[C@@H]1CCC(C)=C[C@@H]21` [THC, tetrahydrocannabinol], the “Other AED response” value in series [3] was “Benefit”.
Regarding `CCCCCCC(=O)OCC(COC(=O)CCCCCC)OC(=O)CCCCCC` [triheptanoin], in series [5], the “Other AED response” value is listed as “Benefit”. In series [3], the “Improvement of movement disorder” value was “Improvement” and the “Other AED response” value is listed as “Benefit”.
Turning to L-Dopa/Carbidopa, the “Improvement of movement disorder” value in series [3] is on record as “Improvement”.
For `NC(=O)N1c2ccccc2C=Cc2ccccc21` [CBZ, carbamazepine], in series [5], the “Seizure control, summary over patients” value is “Seizures were improved”. For the same compound, the “Other sodium channel blocker response” value in series [3] was “benefit”.
As for `C=C(C)[C@@H]1CCC(C)=C[C@H]1c1c(O)cc(CCCCC)cc1O` [CBD, cannabidiol], the “Other AED response” value in series [5] is on record as “Benefit”.
In the case of `C=CC(N)CCC(=O)O` (stereo not shown) [VGB, vigabatrin], the “Other AED response” value in series [4] is “Benefit”. Also, the “Seizure control, summary over patients” value in series [3] is “beneficial in one and exacerbated seizures in three”.
As to `CC1OC(C)OC(C)O1` (stereo not shown) [paraldehyde], in series [3], the “Other AED response” value is “Benefit”.
As for `Nc1nnc(-c2cccc(Cl)c2Cl)c(N)n1` [LTG, lamotrigine], the “Other sodium channel blocker response” value in series [2] is on record as “no effect”.
Turning to `CN1C(=O)CC(=O)N(c2ccccc2)c2cc(Cl)ccc21` [CLB, clobazam], the “Other AED response” value in series [4] was “Benefit”.
Take `CC1(C)O[C@@H]2[C@@H](CO[C@@]3(COS(N)(=O)=O)OC(C)(C)O[C@@H]23)O1` [TPM, topiramate]: in series [4], the “Other AED response” value was “Benefit”.

The values are drawn from patent US12259378B2, “Dynamic clamps and methods of use thereof” (priority 2018, dated 2025).
